Results published in patent US8741859B2, “Fungicide composition for agriculture and horticulture and method for preventing plant diseases” (Ishihara Sangyo Kaisha, Ltd, priority 2008, dated 2014).

How the values were obtained:
Pythium graminicola = assay: Inhibition test of mycelial growth against turf Pythium blight (Pythium graminicola); format: cell-based
Description: (§1) The strain to use for a test was precultured on a PSA plate for two days at 20° C. Then, the peripheral portion of the grown mycelia was cut out with a cork borer (4 mm in diameter) to put on PDA plate which was prepared to contain an active ingredient at a predetermined concentration by diluting. After culturing for two days at 20° C., a diameter of the mycelial colony was measured to obtain an inhibition rate of mycelial growth.
(§2) In addition, a theoretical value of the inhibition rate was calculated using Colby's formula and listed in parentheses of Table 1.
Inhibition Test of Mycelial Growth Against Turf Pythium Blight (Pythium graminicola)
The inhibition rate of mycelial growth was obtained by measuring mycelial growth in the same manner as Test Example 1. In addition, the mean mycelial growth of non-treated group was 46.5 mm.

Pythium spinosum = assay: Inhibition test of mycelial growth against rice seedling blight (Pythium spinosum); format: cell-based; conditions: Globisporangium spinosum, 48 h, PDA plate, 2 days, 20° C., read-out: Inhibition Rate of Mycelial Growth against Pythium spinosum (%)
Description: Inhibition Test of Mycelial Growth Against Rice Seedling Blight (Pythium spinosum)
as §1, §2

## Cc1ccc(-c2c(Cl)nc(C#N)n2S(=O)(=O)N(C)C)cc1 [Cyazofamid, 4-chloro-2-cyano-1-dimethylsulfamoyl-5-(4-methylphenyl)imidazole]
Pythium graminicola; Cyazofamid 1 ppm alone (agent 0 ppm)
  Inhibition Rate of Mycelial Growth (%): 48%
Pythium graminicola; Cyazofamid 10 ppm alone (agent 0 ppm)
  Inhibition Rate of Mycelial Growth (%): 47%
Pythium graminicola; Cyazofamid 100 ppm alone (agent 0 ppm)
  Inhibition Rate of Mycelial Growth (%): 68%
Pythium spinosum; Cyazofamid 1.0 ppm alone (polyoxin 0 ppm)
  inhibition at 1 ppm: 68%
Pythium spinosum; Cyazofamid 10.0 ppm alone (polyoxin 0 ppm)
  inhibition at 10 ppm: 54%
